Reference: article PMC8157578 (Antioxidants, 2021)
Entries after “also recorded” stand apart in the source; their conditions may differ.

Tests used:
HeLa cells [1] = experiment: Immunofluorescence analysis of intracellular γ-H2AX generation in iron-overloaded HeLa cells (with H2O2); type: cell-based, human; details: for Fluorescence intensity of γ-H2AX: Fe(II)-H2O2 alone 2.86±0.64; for Concentration that significantly inhibits cellular DNA damage induced by iron overload (with H2O2) / Inhibition of cellular DNA damage induced by iron overload (with H2O2), in words: γ-H2AX, HeLa; for Concentration that significantly inhibits cellular DNA damage induced by iron overload (with H2O2): pre-treatment
Procedure: The immortalized human cervical carcinoma HeLa cell line used in this study was obtained from the Cell Resource Center, Peking Union Medical College. The cell line was checked to be free of mycoplasma contamination by PCR and culture. Its species origin was confirmed with PCR. The identity of the cell line was authenticated with STR profiling (FBI, CODIS). HeLa cells were cultured in a DMEM medium (4 mM L-glutamine, 4500 mg/L glucose, and no sodium pyruvate) with 10% fetal bovine serum (FBS) and 1% penicillin–streptomycin at 37 °C under a 5% CO2 atmosphere.
HeLa cells (10^4/well) were loaded by incubation with 20 μM Fe(II) for 2 h at 37 °C. […] For a detailed experimental procedure, please refer to the Supplementary Materials and our previous report. The experiment was repeated three times. The observation of the fluorescence of γ-H2AX in HeLa cells was conducted with a confocal laser scanning microscope (CLSM) (Leica TCS SP). Thirty cells in each group were randomly selected in different microscopic fields for quantitative detection. In detail, each well was equally divided into nine fields and numbered sequentially from the top right corner. Four fields were randomly selected according to a random number table. Thirty cells were then randomly selected from these four fields. All images were analyzed blind regarding exposure parameters, which were coded by one person and read by another who was blinded to the code. The fluorescence intensity of the γ-H2AX signal on selected images was automatically analyzed using the Image-J software. The Statistical Product and Service Solutions (SPSS 21) program was employed to analyze the data through ANOVA. Significant difference from iron-overloaded group are marked with * p < 0.05, ** p < 0.01, and *** p < 0.001.
(§1) 2.1 Immunofluorescence analysis of intracellular γ-H2AX generation in Hela cells
(§2) Fixed cells were permeabilized with 0.25% Triton-X100 in PBS for 10 min and blocked in 10%
(§3) normal goat serum, 0.1% tween 20 in PBS for 1 hour. The cells were incubated with primary
(§4) monoclonal antibody, γ-H2AX (Ser139, 20E3, Rabbit, mAb #9718) (1:600) overnight at 4°C, and then
(§5) stained secondary antibodies, anti-rabbit Alexa-488 and anti-mouse (Cell Signaling Technology) for
(§6) 1 hour. After Hoechst 33342 (10 μg/mL) staining for 2 min, dishes were mounted in ProLong™ Gold
(§7) Antifade Mountant (Invitrogen™) and stored at 4°C in the dark before confocal laser-scanning by
(§8) Broadband Confocal Leica TCS SP5. The CLSM images were obtained with the following excitation
respectively. Cells were washed 3 times with PBS (200 μL/well) at intervals. […]

HeLa cells [2] = experiment: Labile iron pool (LIP) determination with calcein-AM in iron-overloaded HeLa cells, flow cytometry; type: cell-based, human; details: for Fluorescence intensity of calcein-AM (LIP level): 15 min, Fe(II) alone 0.63-0.64
Procedure: HeLa cells (10^6/mL) were loaded by incubation with 20 μM Fe(II) for 2 h at 37 °C. Subsequently, cells were collected by centrifugation (1000 rpm for 5 min) and incubated with 0.5 μM calcein-AM for 15 min at 37 °C in a D’hanks buffer of pH 7.4. Cells were then washed twice by D’hanks buffer (pH 7.4) and incubated with or without CAPE and its analogues. The fluorescence was monitored by both flow cytometry (BD FACS Caliber) and a CLSM (Leica TCS SP). The experiment was repeated three times.
Figure 3 Effect of CAPE and its analogues on the LIP level in iron-overloaded cells, as measured by flow cytometry (A–D). HeLa cells were pretreated with 20 μM Fe(II) for 2 h and then incubated with calcein-AM. After 15 min, cells were washed and incubated with or without CAPE and its analogues for 15 min. The fluorescence intensity of cells was measured by flow cytometry. Significant differences from the iron-overloaded group are marked with * p < 0.05, ** p < 0.01, and *** p < 0.001. The experiment was repeated three times.

plasmid pBR322 DNA = experiment: Plasmid DNA strand breakage induced by Fe(III)–citrate/ascorbate/H2O2, agarose gel electrophoresis; type: biochemical; details: for Protective effect against iron-mediated DNA damage through inhibiting •OH generation, in words: isolated DNA, Fe(III) and Fe(II) systems, Figures S9–S12
Procedure: Plasmid DNA agarose gel electrophoresis was employed to investigate protective effect of CAPE and its analogues against DNA strand breakage induced by an iron-mediated system. For experimental procedure details, please refer to the Supplementary Materials.
Figure 4 Protective effect of CAPE and its analogues against Fe(III)–citrate–ascorbate–H2O2-induced DNA damage. […] The reaction mixture contained 20 μM Fe(III)–citrate, 10 μM ascorbate, and 200 μM H2O2, as well as the indicated concentrations of CAPE and its analogues. The experiments were repeated three times, and only typical images are presented. […]
(§9) The experiments were conducted via incubation of plasmid pBR322 DNA (5 μg/mL) at 37 °C for
(§10) 30 min in Chelex-treated HEPES buffer (100 mM, pH 7.4) with the iron-containing systems, in the
absence or presence of the indicated concentrations of CAPE and its analogues. […]

[3] = Calcein fluorescence quenching by Fe(III)–citrate, competition by ligand; type: binding; details: 0.1 μM calcein, 100 μM Fe(III)–citrate, 100–500 μM compound
Procedure: In the presence of calcein, mixtures of CAPE and Fe(III)/Fe(II) with different concentrations in 20 mM HEPES (pH 7.4) were used for fluorescence detection (Ex: 488 nm; Em: 515 nm). Fluorescence spectra were recorded using a Cary Eclipse fluorescence spectrophotometer (Varian, Palo Alto, CA, USA).
Figure 7 Effect of CAPE and its analogues on the fluorescence intensity of calcein–Fe(III)–citrate. (A,B) the fluorescence quenching of calcein by Fe(III)–citrate diminished in a (CAPE/CA:Fe(III)) ratio-dependent manner. […] The reaction mixture contained 0.1 μM calcein, 100 μM Fe(III)–citrate, and indicated concentrations of CAPE or its analogues (100–500 μM). The experiments were repeated three times, and only typical spectra are presented.

[4] = Cyclic voltammetry of Fe(III) chelated by ligand; type: physicochemical; details: 100 mM PB pH 7.4, SCE reference, 2 mV/s; Fe(III) alone approximately −0.65 V
Procedure: CV was performed in 100 mM PB (pH 7.4) on a Princeton Applied Research (VersaSTAT3) potentiostat with a Pt wire as the counter electrode, a saturated calomel electrode (SCE) as the reference electrode, and a glassy carbon electrode (5 mm in diameter) as the working electrode. The scan rate was 2 mV/s.

HeLa cells [5] = experiment: Labile iron pool (LIP) determination with calcein-AM in iron-overloaded HeLa cells, flow cytometry; type: cell-based, human; details: 500 μM compound alone, no iron
[6] = 1-octanol/phosphate buffer partitioning, shake-flask method; type: physicochemical; details: 1-octanol / 100 mM phosphate buffer pH 7.4, shake-flask
[7] = ESR spin-trapping (DMPO) of •OH generated by Fe(III)–citrate–ascorbate–H2O2; type: biochemical; details: 100 μM Fe(III)–citrate, 100 μM ascorbate, 1 mM H2O2
Procedure: The basic system used in this study consisted of Fe(III)/Fe(II), ascorbate, H2O2, and the spin trapping agent DMPO (100 mM) in 20 mM HEPES (pH 7.4) with or without CAPE and its analogues.
The reaction mixture contained 100 μM Fe(III)–citrate, 100 μM ascorbate, and 1 mM H2O2, as well as the indicated concentrations of CAPE and its analogues. The experiments were repeated three times, and only typical spectra are presented.
spectrometer parameters were as follows: scan range, 100 G; field set, 3470 G; time constant, 200 ms;
scan time, 100 s; modulation amplitude, 1.0 G; modulation frequency, 100 kHz; receiver gain,

[8] = Dissolved oxygen consumption by ascorbic acid/Fe(III)–citrate; type: biochemical; details: 100 μM Fe(III)-citrate, 1 mM ascorbate, ratio 5:1
Procedure: as §1, §2, §3, §4, §5, §6, §7, §8
respectively. Cells were washed 3 times with PBS (200 μL/well) at intervals.
as §9, §10
absence or presence of the indicated concentrations of CAPE and its analogues.
2.3 Electron spin resonance (ESR) spin-trapping studies
ESR spectra were recorded at room temperature in a Bruker ESR 300 spectrometer. Typical […]
The consumption of O2 was measured by Orion 3 dissolved oxygen meter (Thermo Scientific, […]
Corona Needle current was 3000 nA. The size of data points was recorded in 4 M format. […]

[9] = 20 μM Fe(III)–citrate, 10 μM ascorbate, 200 μM H2O2

Structure (SMILES) | Fluorescence intensity of γ-H2AX (HeLa cells [1]; Fe(II)-H2O2 + 50 μM compound) | Fluorescence intensity of γ-H2AX (HeLa cells [1]; Fe(II)-H2O2 + 100 μM compound) | Fluorescence intensity of γ-H2AX (HeLa cells [1]; Fe(II)-H2O2 + 200 μM compound) | Fluorescence intensity of γ-H2AX (HeLa cells [1]; Fe(II)-H2O2 + 500 μM compound) | Concentration that significantly inhibits cellular DNA damage induced by iron overload (with H2O2) (HeLa cells [1]) [µM] | Fluorescence intensity of calcein-AM (LIP level) (HeLa cells [2]; 20 μM Fe(II) + 50 μM compound) | Fluorescence intensity of calcein-AM (LIP level) (HeLa cells [2]; 20 μM Fe(II) + 200 μM compound) | Fluorescence intensity of calcein-AM (LIP level) (HeLa cells [2]; 20 μM Fe(II) + 500 μM compound) | Concentration that significantly regenerates calcein fluorescence (decreases LIP level) (HeLa cells [2]; iron-overloaded HeLa cells) [µM] | Protective effect against Fe(III)–citrate–ascorbate–H2O2-induced DNA damage, in words (plasmid pBR322 DNA; [9]) | Concentration range with the stated inhibition of Fe(III)-citrate-Vc-H2O2 induced DNA damage (plasmid pBR322 DNA; 20 μM Fe(III)–citrate, 10 μM ascorbate, 200 μM H2O2, CAPE significantly, CA slightly) [µM] | Inhibition of calcein fluorescence quenching by Fe(III)–citrate, in words [3] | Reduction potential of Fe(III) chelated by compound [4] [V] | Fluorescence intensity of calcein-AM (LIP level) (HeLa cells [5]) | Protective effect against iron-mediated DNA damage through inhibiting •OH generation, in words (plasmid pBR322 DNA) | LogKow [6] | Inhibition of cellular DNA damage induced by iron overload (with H2O2), in words (HeLa cells [1]) | Effect on calcein fluorescence (LIP level), in words (HeLa cells [2]; iron-overloaded HeLa cells, 50–500 μM) | Inhibitory effect against Fe(III)-citrate-Vc-H2O2 induced •OH generation, in words [7] | Effect on O2 consumption induced by ascorbic acid/Fe(III)–citrate, in words [8]
O=C(O)/C=C/c1ccc(O)c(O)c1 [CA, caffeic acid] | 3.13±0.42 Fold of Control | 3.09±0.51 Fold of Control | 2.82±0.43 Fold of Control | 1.73±0.43 Fold of Control | 500 | 0.63±0.02 Fold of Control | 0.64±0.01 Fold of Control | 0.70±0.02 Fold of Control | 500 | lower than CAPE; also recorded: slightly inhibited | 20 to 200 | weaker inhibition | −0.76 | 1.00±0.02 Fold of Control | – | – | – | – | – | –
COC(=O)/C=C/c1ccc(O)c(O)c1 [CAME, caffeic acid methyl ester] | – | – | – | – | 100 to 500 | – | – | – | 200 to 500 | – | – | – | −0.79 | – | weaker than CAPE | 1.27 ± 0.06 | – | – | – | –
CCOC(=O)/C=C/c1ccc(O)c(O)c1 [CAEE, caffeic acid ethyl ester] | – | – | – | – | 50 to 500 | – | – | – | 50 to 500 | – | – | – | −0.99 | – | weaker than CAPE | 1.51 ± 0.03 | – | – | – | –
c1cnc2c(c1)ccc1cccnc12 [OP, 1,10-phenanthroline, reference compound] | – | – | – | – | – | – | – | – | – | – | – | – | – | – | – | – | effective | – | – | –
CCOC(=O)/C=C/c1ccc(O)c(OC)c1 [EF, ethyl ferulate] | – | – | – | – | – | 0.65±0.03 Fold of Control | 0.62±0.02 Fold of Control | 0.61±0.02 Fold of Control | – | no significant protective effect | – | no inhibitory effects | – | 0.99±0.01 Fold of Control | – | 1.38 ± 0.02 | no significant inhibition | no effect | no inhibitory effect | no significant effects
